In US20240344241A1, “PROTEINACEOUS MOLECULES AND USES THEREFOR” (THE UNIVERSITY OF QUEENSLAND, priority 2021, published 2024):
Bridge positions count the residues as written; N and C are the ends. Peptide text beside a SMILES is read from it.

Tests used:
Human thrombin = biological target: T1, Human thrombin (Homo sapiens, UniProt P00734); test: Thrombin inhibition assay; assay type: biochemical
T1 construct: Human β-FXIIa was obtained from Molecular Innovations, together with human FXa, human FXIa, human α-thrombin, and human plasma kallikrein; purchased Molecular Innovations; host or cells: purified from human plasma
Method: (§1) The activity of acyclic and cyclic MCoFx1-5 and analogues thereof was assessed in competitive inhibition assays, as previously described in Swedberg et al. (2016) J Med Chem, 59: 7287-7292. Human β-FXIIa was obtained from Molecular Innovations, together with human FXa, human FXIa, human α-thrombin, and human plasma kallikrein. Human cationic trypsin and human plasmin were obtained from Sigma-Aldrich, and recombinant human matriptase was sourced from R&D Systems. Recombinant human urokinase (uPA) and recombinant human tissue plasminogen activator (tPA) were expressed in Expi293 cells, as previously described in Li et al. (2019) Chembiochem, 20: 46-50. FXIIa inhibition assays were performed in clear, low-binding 96-well plates using 250 μL (final volume) of assay buffer (0.1 M Tris-HCl pH 8.0, 0.1 M NaCl, 10 mM CaCl2 and 0.005% Triton X-100). Inhibitors were serially diluted and incubated with 10 nM FXIIa at room temperature to reach equilibrium. After adding 100 μM Ac-QRFR-pNA substrate (KM=162 μM), enzymatic activity was measured by monitoring release of the pNA moiety using a TECAN infinite M1000 Pro plate reader (A=405 nm, reading interval, 10 s; assay time course, 7 min). Assays were conducted in three times in duplicate. Substrate kinetic constants (Michaelis-Menten) and inhibition constants (Morrison K) were determined by non-linear regression using Prism 7 (GraphPad). Selectivity assays with off-target proteases were performed in a similar way, except that different concentrations of enzyme and substrate were used, as indicated in Table 16. For assays using a fluorescent substrate (peptide-4-methylcoumaryl-7-amide, MCA), black low-binding 96-well plates were used and activity was measured using a TECAN infinite M1000 pro plate reader (λex 360 nm, λem 460 nm, reading interval, 30 s; assay time course, 5-30 min).

Human β-FXIIa = biological target: T2, Human β-FXIIa (Homo sapiens, UniProt P00748); test: FXIIa competitive inhibition assay, colorimetric substrate Ac-QRFR-pNA; assay type: biochemical
T2 construct: Human β-FXIIa was obtained from Molecular Innovations, together with human FXa, human FXIa, human α-thrombin, and human plasma kallikrein; purchased Molecular Innovations; host or cells: purified from human plasma
Summary of the method: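 Competitive inhibition: serially diluted inhibitors were pre-incubated with enzyme at room temperature to equilibrium in 0.1 M Tris-HCl pH 8.0, 0.1 M NaCl, 10 mM CaCl2, 0.005% Triton X-100. Substrate hydrolysis was followed by pNA absorbance (405 nm) or MCA fluorescence (ex 360/em 460 nm); Morrison Ki by non-linear regression.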

[1] = system: clotting via the intrinsic pathway; test: Activated partial thromboplastin time (aPTT) assay in human plasma; assay type: biochemical
Description: Citrated, platelet-poor plasma samples from healthy adults were collected, prepared, and stored using previously established collection protocols, such as in Zdenek et al. (2019) Toxicol in Vitro, 58: 97-109.
Standard coagulation assays were used to determine the effect of the inhibitors on the clotting time of human plasma. Activated partial thromboplastin time (aPTT) uses a Kaolin reagent (clay) to activate the intrinsic/contact pathway of the coagulation cascade, whereas prothrombin time (PT) uses Neoplastine (lyophilized thromboplastin prepared from rabbit cerebral tissue) to activate the extrinsic/tissue-factor pathway of the coagulation cascade. A minor adjustment was made to both tests (addition of 25 μL inhibitor or buffer; refer to Table 17) to accommodate the addition of an inhibitor without changing the total volume (and therefore relative ratios of additives) of the assay. Concentrations of inhibitor are reported as the concentration at the point of incubation in the assay, i.e. not taking into account the addition of the start reagent (calcium for aPTT, or Neoplastine for PT).
Clotting time (seconds) of plasma was automatically measured using a STA-R Max® analyzer (Stago, Asnieres sur Seine, France). Measurements were conducted using a viscosity-based (mechanical) detection system, whereby opposing magnets oscillate a small metal spherical pellet inside the test cuvette (250 μL total volume) until a clot is formed. Dilution of the inhibitor in Owren-Koller (OK) buffer for dose-response curves was performed automatically by the machine. Reagents were kept at 15-19° C. in the machine during experimentation and otherwise stored at 4° C. All tests were performed in triplicate.

[2] = biological target: T3, biotinylated human β-FXIIa (Homo sapiens, UniProt P00748); test: Surface plasmon resonance binding to FXIIa
T3 construct: purchased Molecular Innovations
Method: Binding kinetics of each peptide towards biotinylated human β-FXIIa (Molecular Innovations) and non-labelled zymogen FXII (Haematologic Technologies) were determined using a Biacore T200 machine (Cytiva). For β-FXIIa binding measurements, the running buffer was HBS-EP+(10 mM HEPES, 150 mM NaCl, 3 mM EDTA and 0.05% (v/v) surfactant P20, pH 7.4). Biotinylated β-FXIIa was immobilized on a Sensor Chip CAP (Cytiva) using Biotin CAPture Reagent (Cytiva). A series of concentrations of each peptide were injected as analyte and the binding kinetics were modelled using a 1:1 binding model. Regeneration of sensor surface was performed after each measurement cycle. For FXII binding measurements, the running buffer was PBST (137 mM NaCl, 2.7 mM KCl, 10 mM Na2HPO4, 1.8 mM KH2PO4, 0.05% Tween-20). Non-labelled FXII was immobilized on a Sensor Chip CM5 (Cytiva) using Amine Coupling Kit (Cytiva), achieving a final immobilization level of 2500 RU. Each peptide was flowed through immobilized FXII at 5 μM for 60 s and allowed dissociation for 150 s.

Rec. human tPA = biological target: T4, Rec. human tPA (Homo sapiens, UniProt P00750); test: tPA inhibition assay; assay type: biochemical
T4 construct: made in house; host or cells: Expi293 cells
Method: as §1

T2 sequence (P00748 373-615 limits assumed, other chains not shown): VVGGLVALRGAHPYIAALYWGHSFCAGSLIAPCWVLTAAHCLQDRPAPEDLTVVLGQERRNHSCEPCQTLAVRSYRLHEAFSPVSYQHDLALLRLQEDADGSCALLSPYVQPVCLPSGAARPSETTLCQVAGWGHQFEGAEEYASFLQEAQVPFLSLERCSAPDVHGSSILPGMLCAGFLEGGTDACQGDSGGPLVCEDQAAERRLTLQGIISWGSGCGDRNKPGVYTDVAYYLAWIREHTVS
T3 sequence (P00748 373-615 limits assumed, other chains not shown): as above
T4 sequence (P00750 36-562): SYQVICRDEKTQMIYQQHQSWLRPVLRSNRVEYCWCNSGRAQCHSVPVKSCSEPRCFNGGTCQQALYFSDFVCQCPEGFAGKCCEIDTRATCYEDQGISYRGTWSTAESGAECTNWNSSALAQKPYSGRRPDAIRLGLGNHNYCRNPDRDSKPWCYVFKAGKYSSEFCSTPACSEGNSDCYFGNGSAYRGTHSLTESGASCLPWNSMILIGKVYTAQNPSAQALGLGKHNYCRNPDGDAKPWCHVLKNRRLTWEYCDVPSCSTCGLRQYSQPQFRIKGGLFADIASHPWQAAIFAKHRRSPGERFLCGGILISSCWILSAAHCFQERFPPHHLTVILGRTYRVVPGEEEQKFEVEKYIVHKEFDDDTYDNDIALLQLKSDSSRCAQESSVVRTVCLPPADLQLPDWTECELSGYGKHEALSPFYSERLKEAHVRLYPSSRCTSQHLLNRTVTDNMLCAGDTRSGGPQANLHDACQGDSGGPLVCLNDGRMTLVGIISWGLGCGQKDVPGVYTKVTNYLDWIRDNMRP

Structure (SMILES): CC[C@H](C)[C@@H]1NC(=O)CNC(=O)CNC(=O)[C@H](CC(=O)O)NC(=O)[C@H](Cc2ccc(O)cc2)NC(=O)CNC(=O)[C@H](CO)NC(=O)CNC(=O)[C@@H]2CSSC[C@@H]3NC(=O)[C@H](CC(=O)O)NC(=O)[C@H](CO)NC(=O)[C@H](CC(=O)O)NC(=O)[C@H](CCCNC(=N)N)NC(=O)[C@H](CCCNC(=N)N)NC(=O)[C@@H]4CSSC[C@H](NC(=O)[C@H]([C@@H](C)CC)NC(=O)[C@H](CSSC[C@H](NC1=O)C(=O)N1CCC[C@H]1C(=O)N[C@@H](CCCNC(=N)N)C(=O)N[C@@H]([C@@H](C)CC)C(=O)NCC(=O)N[C@@H](CCCNC(=N)N)C(=O)N[C@@H](CC(C)C)C(=O)N4)NC(=O)[C@H](C)NC(=O)CNC(=O)[C@@H]1CCCN1C3=O)C(=O)N[C@@H](CCCNC(=N)N)C(=O)N[C@@H](C)C(=O)N[C@@H]([C@@H](C)O)C(=O)N[C@@H](CCCNC(=N)N)C(=O)N[C@@H](Cc1ccccc1)C(=O)N2 [MCoFx1 cyclic] (cyclo(ACICRATRFCGSGYDGGICPRIGRLCRRDSDCPG); disulfide 2-19, 4-26, 10-32)
- inhibition at 5 µM (Human thrombin; at 5 μM, read-out: percent inhibition Thrombin): 2%
- IC50 (Human thrombin; read-out: IC50 Thrombin): > 5000 nM
- Ki (Human β-FXIIa; Table 7, FXIIa, cyclic form of the peptide, read-out: Ki (nM) Cyclic): 0.37 ± 0.04 nM
- fold more potent than MCoTI-II (FXIIa Ki) (Human β-FXIIa; ratio of Ki values): 350 fold
- difference in Ki FXIIa versus trypsin (Human β-FXIIa; selectivity): exceeds three orders of magnitude
- EC2× (concentration required to double the clotting time) [1]: 702 nM
- Kd ([2]; Table 7, FXIIa, cyclic form of the peptide, read-out: KD (nM) Cyclic): 0.9 ± 0.04 nM
- fold higher affinity for FXIIa than MCoTI-II ([2]; ratio of KD values): 60 fold
- inhibition at 5 µM (Rec. human tPA; at 5 μM, read-out: percent inhibition tPA): 0%
- IC50 (Rec. human tPA; read-out: IC50 tPA): > 5000 nM
